Measured values published in patent publication US5138069A (E. I. Du Pont de Nemours and Company, priority 1988, dated 1992).
Where a name gives a salt, the structure may show the parent alone. Read-outs that look alike come from different tables or passages of the source.

Tests used:
AII receptor = assay: Angiotensin II receptor binding (displacement of 3H-AII); conditions: read-out: Angiotensin II Receptor Binding IC50, rat adrenal cortical microsomes, 2 nM 3H-AII, 1 hour, room temperature
Method in brief: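 The receptor source was rat adrenal cortical microsomes in Tris buffer, incubated with 2 nM ³H-AII plus or minus test compound for 1 h at room temperature. Bound and free ligand were separated by rapid filtration on glass-fibre filters. Filter-bound ³H-AII was counted by scintillation.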

Renal Hypertensive Rats = assay: Antihypertensive effects in renal hypertensive rats; assay type: in vivo; conditions: Rattus norvegicus; for minimal effective dose at 30 mg/kg / minimal effective dose at 3 mg/kg: Table 26; for minimal effective dose at 30 mg/kg / minimal effective dose at 100 mg/kg: oral; for minimal effective dose at 3 mg/kg / minimal effective dose at 10 mg/kg: intravenous; for minimal effective dose at 10 mg/kg / minimal effective dose at 100 mg/kg: Table 25; for minimal effective dose at 10 mg/kg: 10 mg/kg or less; for minimal effective dose at 100 mg/kg: 100 mg/kg or less
Method in brief: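 Renal hypertensive rats (renin-driven AII elevation) dosed orally at 100 mg/kg and/or i.v. via jugular cannula at 10 mg/kg; a second set used 30 mg/kg oral and 3 mg/kg i.v. Arterial pressure recorded continuously via carotid cannula and compared with pretreatment levels.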

[1] = Table 25, tested as sodium salt

IC50 (AII receptor; [1])	Compound	minimal effective dose at 10 mg/kg (Renal Hypertensive Rats; tested as sodium salt)	minimal effective dose at 100 mg/kg (Renal Hypertensive Rats; tested as sodium salt)	also measured
	CCCc1nc(C(F)(F)C(F)(F)F)c(C=O)n1Cc1ccc(-c2ccccc2C(=O)O)cc1 [Example 140B]			IC50 (AII receptor; Table 26): 160 nM; minimal effective dose at 30 mg/kg (Renal Hypertensive Rats): < 30 mg/kg
	CCCc1nc(C(F)(F)F)c(C=O)n1Cc1ccc(-c2ccccc2-c2nnn[nH]2)cc1 [Example 140C]			IC50 (AII receptor; Table 26): 20 nM; minimal effective dose at 3 mg/kg (Renal Hypertensive Rats): < 3 mg/kg; minimal effective dose at 30 mg/kg (Renal Hypertensive Rats): < 30 mg/kg
	CCCCc1nc(Br)c(C=O)n1Cc1ccc(-c2ccccc2C(=O)O)cc1 [Example 140D]			IC50 (AII receptor; Table 26): 400 nM; minimal effective dose at 3 mg/kg (Renal Hypertensive Rats): < 3 mg/kg; minimal effective dose at 30 mg/kg (Renal Hypertensive Rats): < 30 mg/kg
	CCCCc1nc(Br)c(C=O)n1Cc1ccc(-c2ccccc2-c2nnn[nH]2)cc1 [Example 140E]			IC50 (AII receptor; Table 26): 33 nM; minimal effective dose at 3 mg/kg (Renal Hypertensive Rats): < 3 mg/kg; minimal effective dose at 30 mg/kg (Renal Hypertensive Rats): < 30 mg/kg
	CCC=Cc1nc(C(F)(F)F)c(C=O)n1Cc1ccc(-c2ccccc2C(=O)O)cc1 [Example 140F]			IC50 (AII receptor; Table 26): 200 nM; minimal effective dose at 3 mg/kg (Renal Hypertensive Rats): < 3 mg/kg; minimal effective dose at 30 mg/kg (Renal Hypertensive Rats): < 30 mg/kg
	CCCCc1nc(C(F)(F)F)c(C(=O)OC)n1Cc1ccc(-c2ccccc2-c2nnn[nH]2)cc1 [Example 140H]			IC50 (AII receptor; Table 26): 76 nM; minimal effective dose at 3 mg/kg (Renal Hypertensive Rats): < 3 mg/kg; minimal effective dose at 30 mg/kg (Renal Hypertensive Rats): < 30 mg/kg
	CCCCc1nc(C(F)(F)F)c(C(=O)OCC)n1Cc1ccc(-c2ccccc2-c2nnn[nH]2)cc1 [Example 140I]			IC50 (AII receptor; Table 25): 52 nM; minimal effective dose at 10 mg/kg (Renal Hypertensive Rats): < 10 mg/kg; minimal effective dose at 100 mg/kg (Renal Hypertensive Rats): < 100 mg/kg
	CCCCc1nc(C(F)(F)F)c(C(N)=O)n1Cc1ccc(-c2ccccc2-c2nnn[nH]2)cc1 [Example 140J]			IC50 (AII receptor; Table 26): 27 nM; minimal effective dose at 3 mg/kg (Renal Hypertensive Rats): < 3 mg/kg; minimal effective dose at 30 mg/kg (Renal Hypertensive Rats): < 30 mg/kg
	CCCCc1nc(I)c(C=O)n1Cc1ccc(-c2ccccc2-c2nnn[nH]2)cc1 [Example 140K]			IC50 (AII receptor; Table 26): 38 nM; minimal effective dose at 3 mg/kg (Renal Hypertensive Rats): < 3 mg/kg; minimal effective dose at 30 mg/kg (Renal Hypertensive Rats): < 30 mg/kg
	CCCCc1nc(Cl)c(C=O)n1Cc1cccc(-c2ccccc2-c2nnn[nH]2)c1 [Example 140L]			IC50 (AII receptor; Table 26): 5700 nM; minimal effective dose at 3 mg/kg (Renal Hypertensive Rats): < 3 mg/kg; minimal effective dose at 30 mg/kg (Renal Hypertensive Rats): < 30 mg/kg
200 nM	CCCCc1nc(Cl)c(CNC(=O)OCC)n1Cc1ccc(-c2ccccc2C(=O)O)cc1 [Example 148, 2-Butyl-1-[(2'-carboxybiphenyl-4-yl)methyl]-4-chloro-5-(ethoxycarbonylaminomethyl)imidazole]	< 10 mg/kg	< 100 mg/kg	
200 nM	CCCCc1nc(Cl)c(CNC(=O)OC)n1Cc1ccc(-c2ccccc2C(=O)O)cc1 [Example 150]	< 10 mg/kg	< 100 mg/kg	
560 nM	CCCCc1nc(Cl)c(CNC(=O)OCCC)n1Cc1ccc(-c2ccccc2C(=O)O)cc1 [Example 151]	< 10 mg/kg	< 100 mg/kg	
250 nM	CCCCc1nc(Cl)c(CNC(=O)OC(C)C)n1Cc1ccc(-c2ccccc2C(=O)O)cc1 [Example 152]	< 10 mg/kg	< 100 mg/kg	
200 nM	CCCCOC(=O)NCc1c(Cl)nc(CCCC)n1Cc1ccc(-c2ccccc2C(=O)O)cc1 [Example 153]	< 10 mg/kg	< 100 mg/kg	
600 nM	CCCCc1nc(Cl)c(CNC(=O)OC23CC4CC(CC(C4)C2)C3)n1Cc1ccc(-c2ccccc2C(=O)O)cc1 [Example 154]	< 10 mg/kg	< 100 mg/kg	
	CCCCc1nc(Cl)c(CNC(=O)OC)n1Cc1ccc(-c2ccccc2-c2nnn[nH]2)cc1 [Example 156]			IC50 (AII receptor; Table 25): 60 nM; minimal effective dose at 10 mg/kg (Renal Hypertensive Rats): < 10 mg/kg
120 nM	CCCCc1nc(CNC(=O)OC)c(Cl)n1Cc1ccc(-c2ccccc2C(=O)O)cc1 [Example 160]	< 10 mg/kg	< 100 mg/kg	
140 nM	CCCCc1nc(CNC(=O)OCCC)c(Cl)n1Cc1ccc(-c2ccccc2C(=O)O)cc1 [Example 162]	< 10 mg/kg	< 100 mg/kg	
3000 nM	CCCCc1nc(Cl)c(CNC(=O)Nc2cccc3ccccc23)n1Cc1ccc(-c2ccccc2C(=O)O)cc1 [Example 165, 2-n-Butyl-1-[(2'-carboxybiphenyl-4-yl)methyl]-4-chloro-5-(1-naphthylaminocarbonylaminomethyl)-imidazole]	< 10 mg/kg	> 100 mg/kg	
240 nM	CCCCc1nc(Cl)c(CNC(=O)NC)n1Cc1ccc(-c2ccccc2C(=O)O)cc1 [Example 166]	< 10 mg/kg	> 100 mg/kg	
600 nM	CCCCc1nc(Cl)c(CNC(=O)NC(C)c2cccc3ccccc23)n1Cc1ccc(-c2ccccc2C(=O)O)cc1 (stereo not drawn) [Example 171]	< 10 mg/kg	> 100 mg/kg	
300 nM	CCCCc1nc(Cl)c(COC)n1Cc1ccc(-c2ccccc2Cc2nn[nH]n2)cc1 [Example 174, 2-n-Butyl-4-chloro-5-methoxymethyl-1-[(2'-((tetrazol-5-yl)methyl)biphenyl-4-yl)methyl]imidazole]	< 10 mg/kg	> 100 mg/kg	
1500 nM	CCCCc1nc(Cl)c(CO)n1Cc1ccc(-c2ccccc2CC(=O)O)cc1 [Example 175, 2-n-Butyl-1-[(2'-(carboxymethyl)biphenyl-4-yl)methyl]-4-chloro-5-(hydroxymethyl)-imidazole.dicyclohexylamine salt]	< 10 mg/kg	> 100 mg/kg	
	CCCCc1nc(Cl)c(COC)n1Cc1ccc(-c2ccccc2C(=O)NNS(=O)(=O)C(F)(F)F)cc1 [Example 176, 2-n-Butyl-4-chloro-5-methoxymethyl-1-[4-(2-(trifluoromethylsulfonylhydrazido)biphenyl-4-yl)methyl]imidazole]			IC50 (AII receptor; Table 25): 200 nM; minimal effective dose at 10 mg/kg (Renal Hypertensive Rats): < 10 mg/kg; minimal effective dose at 100 mg/kg (Renal Hypertensive Rats): > 100 mg/kg
	CCCCc1nc(Cl)c(CO)n1Cc1ccc(-c2ccccc2-c2c[nH]nn2)cc1 [Example 177]			IC50 (AII receptor; Table 25): 9600 nM; minimal effective dose at 10 mg/kg (Renal Hypertensive Rats): < 10 mg/kg; minimal effective dose at 100 mg/kg (Renal Hypertensive Rats): > 100 mg/kg
	CCCCc1nc(Cl)c(CO)n1Cc1ccc(-c2ccccc2C(=O)NOCc2ccccc2)cc1 [Example 181]			IC50 (AII receptor; Table 25): 4900 nM; minimal effective dose at 10 mg/kg (Renal Hypertensive Rats): < 10 mg/kg; minimal effective dose at 100 mg/kg (Renal Hypertensive Rats): > 100 mg/kg
	CCCCc1nc(Cl)c(CO)n1Cc1ccc(-c2ccccc2C(=O)NO)cc1 [Example 182]			IC50 (AII receptor; Table 25): 4100 nM; minimal effective dose at 10 mg/kg (Renal Hypertensive Rats): < 10 mg/kg; minimal effective dose at 100 mg/kg (Renal Hypertensive Rats): > 100 mg/kg
	CCCCc1nc(Cl)c(CC(=O)O)n1Cc1ccc(OCc2ccccc2C(=O)O)cc1 [Example 192, 1-[4-(2-Carboxybenzyloxy)benzyl]-2-butyl-4-chloroimidazole-5-acetic acid]			IC50 (AII receptor; Table 25): 2300 nM; minimal effective dose at 100 mg/kg (Renal Hypertensive Rats): > 100 mg/kg
1900 nM	CCCCc1nc(Cl)c(Cn2cncn2)n1Cc1ccc(C(=O)c2ccccc2C(=O)O)cc1 [Example 204, 2-Butyl-1-[4-(2-Carboxybenzoyl)benzyl]-4-chloro-5-((1,2,4-triazol-1-yl)methyl)imidazole]	< 10 mg/kg	> 100 mg/kg	

Compound	IC50 (AII receptor; [1])	minimal effective dose at 10 mg/kg (Renal Hypertensive Rats; tested as sodium salt)	minimal effective dose at 100 mg/kg (Renal Hypertensive Rats; tested as sodium salt)	also measured
CCCCc1nc(Cl)c(CNC(=O)Oc2ccccc2)n1Cc1ccc(-c2ccccc2C(=O)O)cc1 [Example 149]	450 nM	< 10 mg/kg	< 100 mg/kg	
